Where two headings read alike, the source gives them in different places.
How the values were obtained:
Assay type in all cases: biochemical
[1] = biological target: T1, Pim-1 (Homo sapiens, UniProt P11309); experiment: TR-FRET assay, Pim-1 kinase (phosphorylation of Bad Ser112); conditions: read-out: IC50 Pim1
T1 construct: His6-labelled recombinant full-length human Pim-1, Pim-2 or Pim-3 protein; His6; made in house
Description: (§1) In order to determine the inhibition of activation of Pim kinases, the compounds of the invention are tested in accordance with a routinely used in vitro TR-FRET assay (Time-Resolved Fluorescence Resonance Energy Transfer). […] For the assay, the following reagents are used:
(§2) Pim kinase—His6-labelled recombinant full-length human Pim-1, Pim-2 or Pim-3 protein (prepared according to J. Mol. Biol. (2005) 348, 183-193); Bad—His6-labelled recombinant full-length human Bad protein (prepared according to J. Mol. Biol. (2005) 348, 183-193); α-His6-APC—murine monoclonal antibody conjugated to allophycocyanin SureLight™ directed against the His6 label (Perkin-Elmer, No. AD0059H, Waltham, Mass., United States); • β-P˜Bad-Eu—murine monoclonal antibody (Cell Signaling Technology #9296B, Danvers, Mass., United States) directed against phosphoBad (Ser112) (7E11) custom-labelled by Perkin-Elmer with the reagent LANCE™ Eu-W1024.
(§3) The assay is based on Perkin-Elmer's LANCE™ technology: the Eu-labelled antibody binds to phospho-Ser112 and generates a TR-FRET signal by interaction with the APC-labelled antibody directed against His6, bound to the His6 label of Bad. The TR-FRET signal is detected using a SpectraMax M5 plate reader (Molecular Devices) with the following settings: λex=340 nm, λem1=615 nm, λem2=665 nm. The ratio of the fluorescence signal at 665 nm to the fluorescence signal at 615 nm is used as the signal reading for the IC50 (calculation is based on the 4-parameter logistic model). The assay is performed in a 384-well format; the liquid manipulations are performed using a Beckman 3000 liquid manipulations station. The test compounds are tested at 10 concentration points in duplicate; the highest compound concentration is typically equal to 30 μM. The ATP concentration is equal to 40 μM, which is equivalent to the apparent KM value.

[2] = biological target: T2, Pim-2 (Homo sapiens, UniProt Q9P1W9); experiment: TR-FRET assay, Pim-2 kinase (phosphorylation of Bad Ser112); conditions: read-out: IC50 Pim2
T2 construct: His6-labelled recombinant full-length human Pim-1, Pim-2 or Pim-3 protein; His6; made in house
T2 sequence (Q9P1W9 whole entry): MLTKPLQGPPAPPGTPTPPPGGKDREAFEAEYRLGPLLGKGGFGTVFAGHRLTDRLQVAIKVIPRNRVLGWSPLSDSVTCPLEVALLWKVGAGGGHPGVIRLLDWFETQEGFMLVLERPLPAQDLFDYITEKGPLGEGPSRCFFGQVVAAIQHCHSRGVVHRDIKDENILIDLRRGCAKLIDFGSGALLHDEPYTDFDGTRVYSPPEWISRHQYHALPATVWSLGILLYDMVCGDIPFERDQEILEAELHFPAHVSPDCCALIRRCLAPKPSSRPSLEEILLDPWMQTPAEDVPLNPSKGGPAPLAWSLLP
Description: as §1, §2, §3

[3] = biological target: T3, Pim-3 (Homo sapiens, UniProt Q86V86); experiment: TR-FRET assay, Pim-3 kinase (phosphorylation of Bad Ser112); conditions: read-out: IC50 Pim3
T3 construct: His6-labelled recombinant full-length human Pim-1, Pim-2 or Pim-3 protein; His6; made in house
Description: as §1, §2, §3

[4] = comparative compounds (Compound No., not claimed)

T1 sequence (P11309 whole entry): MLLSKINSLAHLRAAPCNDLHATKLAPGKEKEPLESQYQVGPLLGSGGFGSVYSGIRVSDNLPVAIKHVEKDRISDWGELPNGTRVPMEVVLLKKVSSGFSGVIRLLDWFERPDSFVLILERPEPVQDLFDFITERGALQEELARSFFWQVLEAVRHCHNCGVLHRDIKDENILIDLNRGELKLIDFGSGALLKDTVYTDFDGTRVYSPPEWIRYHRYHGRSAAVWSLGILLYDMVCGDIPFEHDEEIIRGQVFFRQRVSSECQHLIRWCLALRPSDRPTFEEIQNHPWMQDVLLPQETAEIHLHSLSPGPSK

| IC50 [1, 4] [nM] | IC50 [2, 4] [nM] | IC50 [3, 4] [nM] | IC50 ([1]; TR-FRET, ATP 40 μM) [nM] | IC50 ([2]; TR-FRET, ATP 40 μM) [nM] | IC50 ([3]; TR-FRET, ATP 40 μM) [nM] | SMILES |
| --- | --- | --- | --- | --- | --- | --- |
| > 5000 | > 5000 | > 5000 | – | – | – | COc1cc2c(cn1)[nH]c1cnc(-c3cccnc3)cc12 [Compound 51] |
| > 5000 | > 5000 | > 5000 | – | – | – | c1cncc(-c2cnc3[nH]c4ncccc4c3c2)c1 [Compound 56] |
| – | – | – | 100 to 1000 | – | – | COC(=O)c1cnc2[nH]c3cnc(-c4cccnc4)cc3c2c1 [Example 3, methyl 6-(pyrid-3-yl)-9H-pyrrolo[2,3-b:5,4-c′]dipyridine-3-carboxylate] |
| – | – | – | 1 to 100 | 1000 to 5000 | 100 to 1000 | CCOC(=O)c1cnc2[nH]c3cnc(-c4cccnc4)cc3c2c1 [Example 4, ethyl 6-(pyrid-3-yl)-9H-pyrrolo [2,3-b:5,4-c′] dipyridine-3-carboxylate] |
| – | – | – | 100 to 1000 | 1000 to 5000 | 100 to 1000 | Brc1cnc2[nH]c3cnc(-c4cccnc4)cc3c2c1 [Example 9, 3-bromo-6-(pyrid-3-yl)-9H-pyrrolo[2,3-b:5,4-c′]dipyridine] |
| – | – | – | 1000 to 5000 | – | – | CCN(CC)c1cnc2[nH]c3cnc(-c4cccnc4)cc3c2c1 [Example 11, N,N-diethyl-6-(pyrid-3-yl)-9H-pyrrolo[2,3-b:5,4-c′]dipyrid-3-amine] |
| – | – | – | 100 to 1000 | – | – | CN(CCCC(=O)N1CCCC1)c1cnc2[nH]c3cnc(-c4cccnc4)cc3c2c1 [Example 12, 4-{methyl[6-(pyrid-3-yl)-9H-pyrrolo-[2,3-b:5,4-c′]dipy-rid-3-yl]amino}-1-(pyrrolidin-1-yl)-butan-1-one] |
| – | – | – | 100 to 1000 | 1000 to 5000 | 100 to 1000 | Clc1cnc2[nH]c3cnc(-c4cccnc4)cc3c2c1 [Example 13, 3-chloro-6-(pyrid-3-yl)-9H-pyrrolo[2,3-b:5,4-c′]dipyridine] |
| – | – | – | 1000 to 5000 | 1000 to 5000 | 100 to 1000 | CC(C)(O)c1cnc2[nH]c3cnc(-c4cccnc4)cc3c2c1 [Example 16, 2-[6-(pyrid-3-yl)-9H-pyrrolo[2,3-b:5,4-c′]dipyrid-3-yl]propan-2-ol] |
| – | – | – | 100 to 1000 | > 5000 | 100 to 1000 | OCc1cnc2[nH]c3cnc(-c4cccnc4)cc3c2c1 [Example 17, [6-(pyrid-3-yl)-9H-pyrrolo[2,3-b:5,4-c′]dipyrid-3-yl]methanol] |
| – | – | – | 1 to 100 | > 5000 | 100 to 1000 | CC(C)COC(=O)c1cnc2[nH]c3cnc(-c4cccnc4)cc3c2c1 [Example 18, 2-methylpropyl 6-(pyrid-3-yl)-9H-pyrrolo[2,3-b:5,4-c′]dipyridine-3-carboxylate] |
| – | – | – | 100 to 1000 | – | – | O=C(O)c1cnc2[nH]c3cnc(-c4cccnc4)cc3c2c1 [Example 19, 6-(pyrid-3-yl)-9H-pyrrolo[2,3-b:5,4-c′]dipyridine-3-carboxylic acid] |
| – | – | – | 1 to 100 | – | – | Fc1cnc2[nH]c3cnc(-c4cccnc4)cc3c2c1I [Example 20, 3-fluoro-4-iodo-6-(pyrid-3-yl)-9H-pyrrolo[2,3-b:5,4-c′]dipyridine] |
| – | – | – | 100 to 1000 | > 5000 | 1000 to 5000 | Fc1cnc2[nH]c3cnc(-c4cccnc4)cc3c2c1/C=C/c1ccccc1 [Example 24, 3-fluoro-4-[(E)-2-phenylethenyl]-6-(pyrid-3-yl)-9H-pyrrolo[2,3-b:5,4-c′]dipyridine] |
| – | – | – | 1 to 100 | > 5000 | 100 to 1000 | Fc1cc(F)cc(-c2c(F)cnc3[nH]c4cnc(-c5cccnc5)cc4c23)c1 [Example 25, 4-(3,5-difluorophenyl)-3-fluoro-6-(pyrid-3-yl)-9H-pyrrolo [2,3-b:5,4-c′]-dipyridine] |
| – | – | – | 100 to 1000 | > 5000 | 100 to 1000 | CCOC(=O)/C=C/c1c(F)cnc2[nH]c3cnc(-c4cccnc4)cc3c12 [Example 29, ethyl (2E)-3-[3-fluoro-6-(pyrid-3-yl)-9H-pyrrolo-[2,3-b:5,4-c′]dipyrid-4-yl]prop-2-enoate] |
| – | – | – | 1 to 100 | 1000 to 5000 | 100 to 1000 | OCC(O)CCc1c(F)cnc2[nH]c3cnc(-c4cccnc4)cc3c12 (centres unmarked) [Example 30, 4-(3-fluoro-6-(pyrid-3-yl)-9H-pyrrolo[2,3-b:5,4-c′]dipyrid-4-yl]butane-1,2-diol] |
| – | – | – | 100 to 1000 | > 5000 | 1000 to 5000 | Fc1cnc2[nH]c3cnc(-c4cccnc4)cc3c2c1-c1cccc(N2CCOCC2)c1 [Example 31, 3-fluoro-4-[3-(morpholin-4-yl)phenyl]-6-(pyrid-3-yl)-9H-pyrrolo [2,3-b:5,4-c′]dipyridine] |
| – | – | – | 100 to 1000 | > 5000 | 1000 to 5000 | CN(C(=O)c1c(F)cnc2[nH]c3cnc(-c4cccnc4)cc3c12)c1ccccc1 [Example 35, 3-fluoro-N-methyl-N-phenyl-6-(pyrid-3-yl)-9H-pyrrolo[2,3-b:5,4-c′]-dipyridine-4-carboxamide] |
| – | – | – | 100 to 1000 | > 5000 | 1000 to 5000 | Fc1cnc2[nH]c3cnc(-c4cccnc4)cc3c2c1Cl [Example 37, 4-chloro-3-fluoro-6-(pyrid-3-yl)-9H-pyrrolo[2,3-b:5,4-c′]dipyridine] |
| – | – | – | 100 to 1000 | > 5000 | 100 to 1000 | Cc1c(F)cnc2[nH]c3cnc(-c4cccnc4)cc3c12 [Example 38, 4-methyl-3-fluoro-6-(pyrid-3-yl)-9H-pyrrolo[2,3-b:5,4-c′]dipyridine] |
| – | – | – | 1000 to 5000 | > 5000 | > 5000 | Fc1ccc(-c2cc3c(cn2)[nH]c2ncccc23)cn1 [Example 41, 6-(6-fluoropyrid-3-yl)-9H-pyrrolo[2,3-b:5,4-c′]dipyridine] |
| – | – | – | 1000 to 5000 | – | – | Fc1cncc(-c2cc3c(cn2)[nH]c2ncccc23)c1 [Example 42, 6-(5-fluoropyrid-3-yl)-9H-pyrrolo[2,3-b:5,4-c′]dipyridine] |
| – | – | – | 1 to 100 | 100 to 1000 | 1 to 100 | O=S(=O)(Nc1ccc(-c2c(F)cnc3[nH]c4cnc(-c5cccnc5)cc4c23)cc1)C1CC1 [Example 46, N-{4-[3-fluoro-6-(pyrid-3-yl)-9H-pyrrolo[2,3-b:5,4-c′]dipyrid-4-yl]phenyl}cyclo-propanesulfonamide] |
| – | – | – | 100 to 1000 | – | 100 to 1000 | CC(C)(C)OC(=O)N1CCN(c2ccc(-c3cnc4[nH]c5cnc(-c6cccnc6)cc5c4c3)cc2)CC1 [Example 129, 2-methyl-2-propyl 4-{4-[6-(pyrid-3-yl)-9H-pyrrolo[2,3-b:5,4-c′]dipyrid-3-yl]phenyl}-piperazine-1-carboxylate] |
| – | – | – | 100 to 1000 | – | 100 to 1000 | CC(C)(C)OC(=O)N1CCN(c2cccc(-c3cnc4[nH]c5cnc(-c6cccnc6)cc5c4c3)c2)CC1 [Example 131, 2-methyl-2-propyl 4-{3-[6-(pyrid-3-yl)-9H-pyrrolo[2,3-b:5,4-c′]dipyrid-3-yl]phenyl}piperazine-1-carboxylate] |
| – | – | – | 1 to 100 | – | 100 to 1000 | CCc1cc(N(CC)CC)ncc1-c1cnc2[nH]c3cnc(-c4cccnc4)cc3c2c1 [Example 133, N,N-4-triethyl-5-[6-(pyrid-3-yl)-9H-pyrrolo[2,3-b:5,4-c′]dipyrid-3-yl]pyrid-2-amine] |
| – | – | – | 100 to 1000 | – | 100 to 1000 | CC(C)(C)OC(=O)N1CCN(c2cc(-c3cnc4[nH]c5cnc(-c6cccnc6)cc5c4c3)ccn2)CC1 [Example 143, 2-methyl-2-propyl 4-{4-[6-(pyrid-3-yl)-9H-pyrrolo[2,3-b:5,4-c′]dipyrid-3-yl]pyrid-2-yl}piperazine-1-carboxylate] |

Reference: patent US20110178053A1, “AZACARBOLINE DERIVATIVES, PREPARATION METHOD THEREOF AND THERAPEUTIC USE OF SAME” (SANOFI-AVENTIS, priority 2008, published 2011)
